Data published in US8329644B2, “Lantibiotic-based compounds having antimicrobial activity” (Novacta Biosystems Limited, priority 2007, dated 2012).
≈ marks a conversion by molar mass, not a printed value. Where two headings read alike, the source gives them in different places.

Tests used:
[1] = Water solubility; type: physicochemical; conditions: aqueous
From the text: Typically, compounds of the invention were isolated using phosphate buffers.

[2] = Stability in simulated gastric fluid (SGF); type: in vitro ADME; conditions: 37° C., analytical HPLC
Procedure: (§1) Nisin, mersacidin, compound I and compound III were tested for their susceptibility towards enzymatic digestion in the stomach. Nisin, mersacidin and compound III were tested for their susceptibility towards enzymatic digestion in the intestine. The SGF and SIF were based on the standard USP solutions for simulated gastric and simulated intestinal fluids and their activity confirmed against Bovine Serum Albumin (Hilger et al, Clin. Exp. Immunol. 2001, 123, 387-94). The compounds were incubated in SGF or SIF at 37° C. and their concentrations quantified by analytical HPLC (UV detection at 210 nm). The potential degradation of each compound was also monitored qualitatively by measuring in vitro antibacterial activity against Micrococcus luteus.

[3] = rat, 100 mg/kg oral
Procedure: Male Sprague-Dawley rats were dosed with compound I at 100 mg/kg via the oral route. Faeces and urine were collected over a 48 h period in two batches (at 24 h and 48 h post dose). Blood samples were taken at various time points for the first 24 h.

[4] = system: E. faecium; test: MIC susceptibility testing, E. faecium; type: cell-based; conditions: Enterococcus faecium
Procedure: (§2) Susceptibility testing for all aerobic organisms with the exception of Streptococcus pneumoniae was performed by two-fold serial antibiotic dilutions in Mueller-Hinton Broth supplemented with 50 μg/ml Ca^2+ unless otherwise noted. Susceptibility testing for S. pneumoniae was performed by two-fold serial antibiotic dilutions in Brain-Heart-Infusion Broth supplemented with 50 μg/ml Ca^2+ unless otherwise noted. Actively growing broth cultures were diluted to contain […] by adjusting to an OD600 of 0.2-0.3. They were then diluted a further 1:100 in fresh sterile broth. The assays were performed in duplicate in sterile 96-well microtitre plates in a total volume of 200 μl (160 μl broth, 20 μl antimicrobial agent, 20 μl inoculum) in a concentration range from 64 μg/ml to 0.06 μg/ml. […] Clinical isolates of Clostridium difficile were tested in Wilkins-Chalgren Anaerobe Agar under anaerobic conditions. In all cases, vancomycin was used as a reference antibiotic

[5] = system: E. faecalis; test: MIC susceptibility testing, E. faecalis; type: cell-based; conditions: Enterococcus faecalis; E. faecalis 29212; Table 2; read-out: MIC
Procedure: as §2

[6] = system: S. aureus; test: MIC susceptibility testing, S. aureus; type: cell-based, Staphyloccus aureus; conditions: Staphylococcus aureus, Table 2, read-out: MIC
Procedure: as §2

[7] = system: S. epidermidis; test: MIC susceptibility testing, S. epidermidis; type: cell-based, Staphylococcus epidermidis; conditions: Staphylococcus epidermidis
Procedure: as §2

[8] = system: M. luteus; test: MIC susceptibility testing, M. luteus; type: cell-based; conditions: Micrococcus luteus; M. luteus 4698; Table 2; read-out: MIC
Procedure: as §2

[9] = system: S. pneumoniae; test: MIC susceptibility testing, S. pneumoniae (Brain-Heart-Infusion Broth); type: cell-based, Streptococcus pneumoniae; conditions: Streptococcus pneumoniae; S. pneumoniae R6; Table 2; read-out: MIC
Procedure: as §2

[10] = system: Clostridium difficile; test: MIC, Clostridium difficile in Wilkins-Chalgren Anaerobe Agar; type: cell-based; set-up: key: MIC in μg/ml (two-fold dilutions, 0.06–64)
Procedure: as §2

[11] = system: E. coli; test: MIC against intestinal flora organisms, E. coli; type: cell-based; conditions: for MIC: Escherichia coli, read-out: Minimal Inhibitory Concentration (MIC)
Procedure: as §2

[12] = system: Bifidobacterium adolescentis; test: MIC against intestinal flora organisms, Bifidobacterium adolescentis; type: cell-based; conditions: NCTC11814; Bifidobacterium adolescentis NCTC 11814; Table 5; read-out: Minimal Inhibitory Concentration (MIC)
[13] = system: Bifidobacterium longum; test: MIC against intestinal flora organisms, Bifidobacterium longum; type: cell-based; conditions: NCTC11818; Bifidobacterium longum NCTC 11818; Table 5; read-out: Minimal Inhibitory Concentration (MIC)
[14] = system: Bacteroides fragilis; test: MIC against intestinal flora organisms, Bacteroides fragilis; type: cell-based; conditions: NCTC9343; Bacteroides fragilis NCTC 9343; Table 5; read-out: Minimal Inhibitory Concentration (MIC)
[15] = system: Bacteroides thetaiotaomicron; test: MIC against intestinal flora organisms, Bacteroides thetaiotaomicron; type: cell-based; conditions: NCTC10582; Bacteroides thetaiotaomicron NCTC 10582; Table 5; read-out: Minimal Inhibitory Concentration (MIC)
[16] = system: C. difficile strain VPI 10463; test: Hamster model of C. difficile associated cecitis, first experiment (FIG. 1); type: in vivo; conditions: C. difficile VPI 10463, three times daily at 50 mg/kg/day, 5-day dosing period, groups of 6
Procedure: In the first experiment (FIG. 1) groups of 6 animals were dosed with approximately 10^7 cells of C. difficile strain VPI 10463 and 24 hours later with a subcutaneous dose of 10 mg/kg clindamycin phosphate.
The procedure as described induced a C. difficile infection in the test animals, from which all animals treated only with vehicle died within 3 days.

[17] = system: Micrococcus luteus; test: In vitro antibacterial activity against Micrococcus luteus during SIF incubation; type: cell-based; conditions: after incubation in SIF
Procedure: as §1

For CC[C@H](C)[C@@H]1NC(=O)[C@@H]2NC(=O)[C@H](CC(C)C)NC(=O)[C@H](NC(=O)[C@@H]3CSC[C@@H](N)C(=O)N[C@@H](CO)C(=O)NCC(=O)N[C@@H](Cc4c[nH]c5ccccc45)C(=O)N[C@@H](C(C)C)C(=O)N3)[C@H](C)SC[C@H](NC(=O)[C@H](CCC(=O)O)NC1=O)C(=O)NCC(=O)N[C@H]1C(=O)N[C@@H](CC(C)C)C(=O)N[C@@H](C(C)C)C(=O)N[C@@H](CS[C@H]2C)C(=O)N[C@@H](C)C(=O)N[C@H](C(=O)NCCO)CS[C@H]1C [Compound I, Deoxy-Actagardine B N-[2-ethanolamine]monocarboxamide], the solubility [1] was 15 mg/mL (≈ 7820 µM), the “degradation in Simulated Gastric Fluid” value [2] was “did not show appreciable degradation” and the “material recovered from plasma or urine” value [3] was “No material was recovered”.

CN[C@H](CC(C)C)C(=O)N[C@H]1C(=O)N[C@@H](CC(N)=O)C(=O)N[C@H]2C(=O)N[C@H]3C(=O)N[C@H](C(=O)N[C@H](C(=O)O)c4cc(O)cc(O)c4-c4cc3ccc4O)[C@H](O)c3ccc(c(Cl)c3)Oc3cc2cc(c3O[C@@H]2O[C@H](CO)[C@@H](O)[C@H](O)[C@H]2O[C@H]2C[C@](C)(N)[C@H](O)[C@H](C)O2)Oc2ccc(cc2Cl)[C@H]1O [Vancomycin, vancomycin, reference compound] showed an MIC ([4]; ATCC19579, E. faecium (VSE) ATCC 19579, Table 5, read-out: Minimal Inhibitory Concentration (MIC)) of 0.5 µg/mL (≈ 0.345 µM), an MIC ([4]; ATCC29212, read-out: Minimal Inhibitory Concentration (MIC), E. faecium (VSE) ATCC 29212, Table 5) of 4 µg/mL (≈ 2.76 µM) and an MIC ([4]; E. faecium 19579, Table 2, read-out: MIC) of 4 µg/mL (≈ 2.76 µM). For the same compound, the MIC ([4]; E. faecium 7131121, Table 2, read-out: MIC) was greater than 64 µg/mL, the MIC ([4]; VRE, E. faecium (VRE) (clinical isolate), Table 5, first isolate, read-out: Minimal Inhibitory Concentration (MIC)) was greater than 64 µg/mL and the MIC ([4]; VRE, E. faecium (VRE) (clinical isolate), Table 5, second isolate, read-out: Minimal Inhibitory Concentration (MIC)) was greater than 64 µg/mL. The MIC [5] was 4 µg/mL (≈ 2.76 µM), the MIC ([6]; S. aureus R33) was 1 µg/mL (≈ 0.69 µM) and the MIC ([6]; S. aureus SH1000) was 2 µg/mL (≈ 1.38 µM). It also gave an MIC [7] of 2 µg/mL (≈ 1.38 µM), an MIC [8] of 2 µg/mL (≈ 1.38 µM) and an MIC [9] greater than 64 µg/mL. It also gave an MIC ([10]; Clostridioides difficile, C. difficile 027C, Table 4, read-out: MIC) of 0.5 µg/mL (≈ 0.345 µM), an MIC ([10]; Clostridioides difficile, C. difficile 027SM, Table 4, read-out: MIC) of 0.5 µg/mL (≈ 0.345 µM) and an MIC ([10]; Clostridioides difficile, C. difficile 19126, Table 4, read-out: MIC) of 1 µg/mL (≈ 0.69 µM). It also gave an MIC ([10]; Clostridioides difficile, C. difficile 37779, Table 4, read-out: MIC) of 1 µg/mL (≈ 0.69 µM), an MIC ([10]; Clostridioides difficile, C. difficile B32, Table 4, read-out: MIC) of 1 µg/mL (≈ 0.69 µM) and an MIC ([10]; Clostridioides difficile, C. difficile E4, Table 4, read-out: MIC) of 1 µg/mL (≈ 0.69 µM). It also gave an MIC ([10]; Clostridioides difficile, C. difficile E16, Table 4, read-out: MIC) of 1 µg/mL (≈ 0.69 µM), an MIC ([10]; Clostridioides difficile, C. difficile E101, Table 4, read-out: MIC) of 1 µg/mL (≈ 0.69 µM) and an MIC ([10]; Clostridioides difficile, C. difficile P24, Table 4, read-out: MIC) of 1 µg/mL (≈ 0.69 µM). It also gave an MIC ([10]; Clostridioides difficile, C. difficile P49, Table 4, read-out: MIC) of 0.5 µg/mL (≈ 0.345 µM), an MIC ([10]; Clostridioides difficile, C. difficile P59, Table 4, read-out: MIC) of 1 µg/mL (≈ 0.69 µM) and an MIC ([10]; Clostridioides difficile, C. difficile P62, Table 4, read-out: MIC) of 0.5 µg/mL (≈ 0.345 µM). For the same compound, the “Minimal Inhibitory Concentration (MIC)” value ([11]; E. coli DC2 (membrane more susceptible), Table 5, first line) was greater than 64 µg/mL, the MIC ([11]; ATCC25922, E. coli ATCC 25922, Table 5) was greater than 64 µg/mL and the MIC ([11]; E. coli DC2 (membrane more susceptible), Table 5, second line) was greater than 64 µg/mL. For the same compound, the MIC [12] was 1 µg/mL (≈ 0.69 µM), the MIC [13] was 1 to 2 µg/mL (≈ 0.69 to 1.38 µM) and the MIC [14] was 32 µg/mL (≈ 22.1 µM). For the same compound, the MIC [15] was 64 µg/mL (≈ 44.2 µM) and the “survival of infected animals” value [16] was “survived for the duration of the entire 5-day dosing period”.

Compound “Deoxy-Actagardine B N-[2-hydroxy-2-phenylethylamine]monocarboxamide [Compound XX]” has an MIC ([10]; C. difficile 027C, Table 4A) of 2, an MIC ([10]; C. difficile 630, Table 4A) of 2 and an MIC ([10]; C. difficile 19126, Table 4A) of 2. The MIC ([10]; C. difficile 37779, Table 4A) was 2.

“Deoxy-actagardine B (2-hydroxypiperazine) monocarboxamide [Compound XXIII]” gave an MIC ([10]; C. difficile 027C, Table 4A) of 4, an MIC ([10]; C. difficile 630, Table 4A) of 2 and an MIC ([10]; C. difficile 19126, Table 4A) of 4. For the same compound, the MIC ([10]; C. difficile 37779, Table 4A) was 4.

For “Deoxy-actagardine B (L-serine methyl ester) monocarboxamide [Compound XXI]”, the MIC ([10]; C. difficile 027C, Table 4A) was 2, the MIC ([10]; C. difficile 630, Table 4A) was 4 and the MIC ([10]; C. difficile 19126, Table 4A) was 4. The MIC ([10]; C. difficile 37779, Table 4A) was 4.

Work on “Deoxyactagardine B (N-(2-hydroxyethyl)ethylenediamine) monocarboxamide [Compound XXII]” yielded an MIC ([10]; C. difficile 027C, Table 4A) of 2, an MIC ([10]; C. difficile 630, Table 4A) of 2 and an MIC ([10]; C. difficile 19126, Table 4A) of 2. For the same compound, the MIC ([10]; C. difficile 37779, Table 4A) was 2.

With mersacidin the “in vitro activity against M. luteus during the course of the experiment” value [17] was “remained unaltered”.
